Numbers after ± are expanded uncertainties.
Details: Liquid

CCCOC(C)=O [propyl ethanoate]
mass density (298.15 K, 100 kPa): 882 ± 3.3 kg/m3
mass density (298.15 K, 1000 kPa): 882.5 ± 3.4 kg/m3
mass density (298.15 K, 2000 kPa): 883.4 ± 3.6 kg/m3
mass density (298.15 K, 3000 kPa): 884.3 ± 3.7 kg/m3
mass density (298.15 K, 3300 kPa): 884.6 ± 3.7 kg/m3
mass density (298.15 K, 5000 kPa): 886.4 ± 3.9 kg/m3
mass density (298.15 K, 10000 kPa): 890.7 ± 4.5 kg/m3
mass density (298.15 K, 15000 kPa): 894.8 ± 5.1 kg/m3
mass density (298.15 K, 20000 kPa): 898.7 ± 5.7 kg/m3
mass density (298.15 K, 25000 kPa): 902.5 ± 6.3 kg/m3
mass density (298.15 K, 30000 kPa): 906.9 ± 6.9 kg/m3
mass density (298.15 K, 35000 kPa): 911.7 ± 7.5 kg/m3
mass density (303.15 K, 100 kPa): 876.2 ± 3.3 kg/m3
mass density (303.15 K, 1000 kPa): 876.8 ± 3.4 kg/m3
mass density (303.15 K, 2000 kPa): 877.7 ± 3.6 kg/m3
mass density (303.15 K, 3000 kPa): 878.8 ± 3.7 kg/m3
mass density (303.15 K, 3300 kPa): 879 ± 3.7 kg/m3
mass density (303.15 K, 5000 kPa): 880.8 ± 3.9 kg/m3
mass density (303.15 K, 10000 kPa): 885.3 ± 4.5 kg/m3
mass density (303.15 K, 15000 kPa): 889.5 ± 5.1 kg/m3
mass density (303.15 K, 20000 kPa): 893.5 ± 5.7 kg/m3
mass density (303.15 K, 25000 kPa): 897.4 ± 6.3 kg/m3
mass density (303.15 K, 30000 kPa): 902 ± 6.9 kg/m3
mass density (303.15 K, 35000 kPa): 906.9 ± 7.5 kg/m3
mass density (308.15 K, 100 kPa): 870.5 ± 3.3 kg/m3
mass density (308.15 K, 1000 kPa): 871.2 ± 3.4 kg/m3
mass density (308.15 K, 2000 kPa): 872.2 ± 3.6 kg/m3
mass density (308.15 K, 3000 kPa): 873.2 ± 3.7 kg/m3
mass density (308.15 K, 3300 kPa): 873.4 ± 3.7 kg/m3
mass density (308.15 K, 5000 kPa): 875.3 ± 3.9 kg/m3
mass density (308.15 K, 10000 kPa): 879.9 ± 4.5 kg/m3
mass density (308.15 K, 15000 kPa): 884.3 ± 5.1 kg/m3
mass density (308.15 K, 20000 kPa): 888.4 ± 5.7 kg/m3
mass density (308.15 K, 25000 kPa): 892.4 ± 6.3 kg/m3
mass density (308.15 K, 30000 kPa): 897.2 ± 6.9 kg/m3
mass density (308.15 K, 35000 kPa): 902.3 ± 7.5 kg/m3
mass density (313.15 K, 100 kPa): 864.9 ± 3.3 kg/m3
mass density (313.15 K, 1000 kPa): 865.5 ± 3.4 kg/m3
mass density (313.15 K, 2000 kPa): 866.6 ± 3.6 kg/m3
mass density (313.15 K, 3000 kPa): 867.6 ± 3.7 kg/m3
mass density (313.15 K, 3300 kPa): 867.9 ± 3.7 kg/m3
mass density (313.15 K, 5000 kPa): 869.9 ± 3.9 kg/m3
mass density (313.15 K, 10000 kPa): 874.7 ± 4.5 kg/m3
mass density (313.15 K, 15000 kPa): 879.2 ± 5.1 kg/m3
mass density (313.15 K, 20000 kPa): 883.5 ± 5.7 kg/m3
mass density (313.15 K, 25000 kPa): 887.6 ± 6.3 kg/m3
mass density (313.15 K, 30000 kPa): 892.6 ± 6.9 kg/m3
mass density (313.15 K, 35000 kPa): 897.7 ± 7.5 kg/m3
mass density (318.15 K, 100 kPa): 859.3 ± 3.3 kg/m3
mass density (318.15 K, 1000 kPa): 859.8 ± 3.4 kg/m3
mass density (318.15 K, 2000 kPa): 860.9 ± 3.6 kg/m3
mass density (318.15 K, 3000 kPa): 862.1 ± 3.7 kg/m3
mass density (318.15 K, 3300 kPa): 862.4 ± 3.7 kg/m3
mass density (318.15 K, 5000 kPa): 864.4 ± 3.9 kg/m3
mass density (318.15 K, 10000 kPa): 869.4 ± 4.5 kg/m3
mass density (318.15 K, 15000 kPa): 874.1 ± 5.1 kg/m3
mass density (318.15 K, 20000 kPa): 878.5 ± 5.7 kg/m3
mass density (318.15 K, 25000 kPa): 882.8 ± 6.3 kg/m3
mass density (318.15 K, 30000 kPa): 887.9 ± 6.9 kg/m3
mass density (318.15 K, 35000 kPa): 893.2 ± 7.5 kg/m3
mass density (323.15 K, 100 kPa): 853.6 ± 3.3 kg/m3
mass density (323.15 K, 1000 kPa): 854.8 ± 3.4 kg/m3
mass density (323.15 K, 2000 kPa): 855.8 ± 3.5 kg/m3
mass density (323.15 K, 3000 kPa): 856.9 ± 3.7 kg/m3
mass density (323.15 K, 3300 kPa): 857.1 ± 3.7 kg/m3
mass density (323.15 K, 5000 kPa): 859 ± 3.9 kg/m3
mass density (323.15 K, 10000 kPa): 864.1 ± 4.5 kg/m3
mass density (323.15 K, 15000 kPa): 869 ± 5.1 kg/m3
mass density (323.15 K, 20000 kPa): 873.5 ± 5.7 kg/m3
mass density (323.15 K, 25000 kPa): 877.9 ± 6.3 kg/m3
mass density (323.15 K, 30000 kPa): 883.2 ± 6.9 kg/m3
mass density (323.15 K, 35000 kPa): 888.8 ± 7.5 kg/m3
mass density (328.15 K, 100 kPa): 848 ± 3.3 kg/m3
mass density (328.15 K, 1000 kPa): 848.7 ± 3.4 kg/m3
mass density (328.15 K, 2000 kPa): 849.9 ± 3.5 kg/m3
mass density (328.15 K, 3000 kPa): 851 ± 3.7 kg/m3
mass density (328.15 K, 3300 kPa): 851.3 ± 3.7 kg/m3
mass density (328.15 K, 5000 kPa): 853.7 ± 3.9 kg/m3
mass density (328.15 K, 10000 kPa): 859 ± 4.5 kg/m3
mass density (328.15 K, 15000 kPa): 864 ± 5.1 kg/m3
mass density (328.15 K, 20000 kPa): 868.7 ± 5.7 kg/m3
mass density (328.15 K, 25000 kPa): 873.3 ± 6.3 kg/m3
mass density (328.15 K, 30000 kPa): 878.8 ± 6.9 kg/m3
mass density (328.15 K, 35000 kPa): 884.4 ± 7.5 kg/m3
mass density (333.15 K, 100 kPa): 842.5 ± 3.3 kg/m3
mass density (333.15 K, 1000 kPa): 843.6 ± 3.4 kg/m3
mass density (333.15 K, 2000 kPa): 844.8 ± 3.5 kg/m3
mass density (333.15 K, 3000 kPa): 845.9 ± 3.7 kg/m3
mass density (333.15 K, 3300 kPa): 846.2 ± 3.7 kg/m3
mass density (333.15 K, 5000 kPa): 848.3 ± 3.9 kg/m3
mass density (333.15 K, 10000 kPa): 853.9 ± 4.5 kg/m3
mass density (333.15 K, 15000 kPa): 859 ± 5.1 kg/m3
mass density (333.15 K, 20000 kPa): 863.9 ± 5.7 kg/m3
mass density (333.15 K, 25000 kPa): 868.6 ± 6.3 kg/m3
mass density (333.15 K, 30000 kPa): 874.3 ± 6.9 kg/m3
mass density (333.15 K, 35000 kPa): 880.1 ± 7.5 kg/m3
mass density (338.15 K, 100 kPa): 836.7 ± 3.3 kg/m3
mass density (338.15 K, 1000 kPa): 838 ± 3.4 kg/m3
mass density (338.15 K, 2000 kPa): 839.2 ± 3.5 kg/m3
mass density (338.15 K, 3000 kPa): 840.5 ± 3.7 kg/m3
mass density (338.15 K, 3300 kPa): 840.8 ± 3.7 kg/m3
mass density (338.15 K, 5000 kPa): 842.8 ± 3.9 kg/m3
mass density (338.15 K, 10000 kPa): 848.6 ± 4.5 kg/m3
mass density (338.15 K, 15000 kPa): 853.9 ± 5.1 kg/m3
mass density (338.15 K, 20000 kPa): 859 ± 5.7 kg/m3
mass density (338.15 K, 25000 kPa): 863.8 ± 6.3 kg/m3
mass density (338.15 K, 30000 kPa): 869.6 ± 6.9 kg/m3
mass density (338.15 K, 35000 kPa): 875.5 ± 7.5 kg/m3
mass density (343.15 K, 100 kPa): 831.2 ± 3.3 kg/m3
mass density (343.15 K, 1000 kPa): 832.3 ± 3.4 kg/m3
